Data from patent US11369593B2 (Texas Tech University System, priority 2017, dated 2022).

What was measured:
Format in all cases: cell-based
PC12 cells [1] = assay: Etoposide-induced apoptosis in PC12 cells, cell viability; settings: for viability at 1 µM / viability at 3 µM / viability at 10 µM / viability at 30 µM / viability at 0.1 µM / viability at 0.3 µM: Rattus norvegicus; for viability at 0.1 µM / % Viability 0.1 μM: 0.1 μM compound, vehicle 52.1 ± 7.32; for viability at 0.3 µM / % Viability 0.3 μM: 0.3 μM compound
PC12 cells [2] = assay: Serum starvation-induced apoptosis in PC12 cells, cell viability; settings: Rattus norvegicus
PC12 cells [3] = assay: ROS in PC12 cells, CellROX green / DAPI staining after H2O2; settings: 400 μM H2O2 for 4 hours, FIG. 5A
Protocol: PC12 cells stained with CellROX and DAPI-blue nuclear stain. Greater intensity of green fluorescence indicates greater levels of ROS. Visualized through a microscope (40× magnification, bar=100 μM).
While flupirtine and retigabine are known antioxidants the inventors have shown (FIGS. 5A and 5B) that neuroprotective derivatives operate by a different mechanism of action. […] PC12 cells stained with CellROX and DAPI-blue nuclear stain. Greater intensity of green fluorescence indicates greater levels of ROS. Visualized through a microscope (40× magnification, bar=100 μM).

[4] = PC-12, 1 μM compound, etoposide-induced apoptosis, PC12 cells, read-out: % Viability 1 μM
[5] = PC-12, 3 μM compound, etoposide-induced apoptosis, PC12 cells, read-out: % Viability 3 μM
[6] = PC-12, 10 μM compound, etoposide-induced apoptosis, PC12 cells, read-out: % Viability 10 μM
[7] = PC-12, 30 μM compound, etoposide-induced apoptosis, PC12 cells, read-out: % Viability 30 μM
[8] = PC-12, 1 μM compound, serum starvation-induced apoptosis, PC12 cells, vehicle 55.04 ± 8.99, read-out: % Viability 1 μM
[9] = PC-12, 3 μM compound, serum starvation-induced apoptosis, PC12 cells, read-out: % Viability 3 μM
[10] = PC-12, 10 μM compound, serum starvation-induced apoptosis, PC12 cells, read-out: % Viability 10 μM
[11] = PC-12, 30 μM compound, serum starvation-induced apoptosis, PC12 cells, read-out: % Viability 30 μM
[12] = PC-12, read-out: % Viability 1 μM
[13] = PC-12, read-out: % Viability 3 μM
[14] = PC-12, read-out: % Viability 10 μM
[15] = PC-12, read-out: % Viability 30 μM
[16] = PC-12, etoposide-induced apoptosis, PC12 cells
[17] = etoposide-induced apoptosis, PC12 cells
[18] = 1 μM compound, etoposide-induced apoptosis, PC12 cells
[19] = 3 μM compound, etoposide-induced apoptosis, PC12 cells
[20] = 10 μM compound, etoposide-induced apoptosis, PC12 cells
[21] = 30 μM compound, etoposide-induced apoptosis, PC12 cells

Molecule | viability at 1 µM (PC12 cells [1]; [4]) [%] | viability at 3 µM (PC12 cells [1]; [5]) [%] | viability at 10 µM (PC12 cells [1]; [6]) [%] | viability at 30 µM (PC12 cells [1]; [7]) [%] | viability at 0.1 µM (PC12 cells [1]; [16]) [%] | viability at 0.3 µM (PC12 cells [1]; [16]) [%] | further results
Nc1ccc(N(Cc2ccc(F)cc2)C(=O)OCc2ccccc2)cc1N [NK-22-6] | 69.1 ± 20.1 | 100 ± 5.4 | 98.9 ± 7.93 | 78.6 ± 23 | – | – | viability at 1 µM (PC12 cells [2]; [8]): 68.1 ± 8.86%; viability at 3 µM (PC12 cells [2]; [9]): 82.5 ± 10.5%; viability at 10 µM (PC12 cells [2]; [10]): 74.5 ± 8.48%; viability at 30 µM (PC12 cells [2]; [11]): 37.4 ± 4.98%
CCOC(=O)Nc1ccc(NCc2ccc(F)cc2)cc1N [NK-22-13, Ethyl (2-amino-4-((4-fluorobenzyl)amino)phenyl)carbamate, reference compound] | – | – | – | – | – | – | viability at 1 µM (PC12 cells [1]; [12]): 58.3 ± 2.86%; viability at 3 µM (PC12 cells [1]; [13]): 73.9 ± 13.9%; viability at 10 µM (PC12 cells [1]; [14]): 66.3 ± 17.6%; viability at 30 µM (PC12 cells [1]; [15]): 52.1 ± 7.62%; viability at 1 µM (PC12 cells [2]; [12]): 75.9 ± 15%; viability at 3 µM (PC12 cells [2]; [13]): 77.9 ± 22.6%; viability at 10 µM (PC12 cells [2]; [14]): 85.8 ± 17.9%; viability at 30 µM (PC12 cells [2]; [15]): 76.2 ± 25%; amelioration of reactive oxygen species (ROS) (PC12 cells [3]): do ameliorate ROS
CCCOC(=O)Nc1ccc(NCc2ccc(F)cc2)cc1N [NK-30-2, Propyl (2-amino-4-((4-fluorobenzyl)amino)phenyl)carbamate] | 54.1 ± 9.34 | 55.6 ± 7.41 | 61.6 ± 4.82 | 61.6 ± 18.1 | – | – | viability at 1 µM (PC12 cells [2]; [8]): 70.4 ± 3.39%; viability at 3 µM (PC12 cells [2]; [9]): 78.3 ± 7.18%; viability at 10 µM (PC12 cells [2]; [10]): 84.6 ± 4.75%; viability at 30 µM (PC12 cells [2]; [11]): 76.2 ± 1.61%
CCOC(=O)Nc1ccc(NCc2ccc(-c3ccccc3)cc2)nc1N [NK-57-3, Ethyl (6-(([1,1′-biphenyl]-4-ylmethyl)amino)-2-aminopyridin-3-yl)carbamate] | 63.7 ± 10.1 | 48.9 ± 9.58 | 53.1 ± 14 | 62.3 ± 10.3 | 55.4 ± 14.8 | 61.7 ± 12.7 | –
CCOC(=O)Nc1ccc(OCc2ccc(C(F)(F)F)cc2)nc1N [NK-60-3, Ethyl (2-amino-6-((4-(trifluoromethyl)benzyl)oxy)pyridin-3-yl)carbamate] | 77.1 ± 7.31 | 69.9 ± 8.54 | 71.4 ± 19.6 | 77 ± 6.87 | 64 ± 11 | 83.8 ± 11.5 | –
CCOC(=O)Nc1ccc(NCc2ccc(F)cc2F)nc1N [NK-64-3, Ethyl (2-amino-6-((2,4-difluorobenzyl)amino)pyridin-3-yl)carbamate] | 91 ± 19.8 | 78 ± 16.8 | 89.2 ± 4.4 | 90.7 ± 12.7 | 84 ± 21.9 | 93 ± 14.1 | –
CCOC(=O)Nc1ccc(NCc2ccc(C)cc2C)nc1N [NK-65-3, Ethyl (2-amino-6-((2,4-dimethylbenzyl)amino)pyridin-3-yl)carbamate] | 61.8 ± 9.82 | 87.9 ± 11.4 | 85.7 ± 13.2 | 65.7 ± 19 | 55.5 ± 11.3 | 56.9 ± 18.4 | –
CCOC(=O)Nc1ccc(NCc2cccc(C)c2)nc1N [NK-66-3, Ethyl (2-amino-6-((3-methylbenzyl)amino)pyridin-3-yl)carbamate] | 101 ± 17.4 | 82.3 ± 31.4 | 86.1 ± 26.9 | 107 ± 9.4 | 94.7 ± 25.8 | 110 ± 11.3 | –
CCOC(=O)Nc1ccc(NCc2cccc(OC)c2)nc1N [NK-67-3, Ethyl (2-amino-6-((3-methoxybenzyl)amino)pyridin-3-yl)carbamate] | 82.8 ± 19.8 | 87.5 ± 15 | 70.1 ± 3.36 | 63.8 ± 14 | 59.2 ± 3.98 | 48.6 ± 9.49 | –
Ethyl (6-((4-fluorobenzyl)amino)-4-methylpyridin-3-yl)carbamate [NK-48-3] | – | – | – | – | – | – | % Viability 0.1 μM (PC12 cells [1]; [17]): 54.78 ± 2.77%; % Viability 0.3 μM (PC12 cells [1]; [17]): 57.46 ± 4.02%; % Viability 1 μM (PC12 cells [1]; [18]): 57.03 ± 1.81%; % Viability 3 μM (PC12 cells [1]; [19]): 53.80 ± 1.98%; % Viability 10 μM (PC12 cells [1]; [20]): 57.06 ± 4.28%; % Viability 30 μM (PC12 cells [1]; [21]): 63.25 ± 3.32%
Hexyl (2-amino-6-((4-fluorobenzyl)amino)pyridin-3-yl)carbamate [NK-42-1] | – | – | – | – | – | – | % Viability 0.1 μM (PC12 cells [1]; [17]): 60.08 ± 3.34%; % Viability 0.3 μM (PC12 cells [1]; [17]): 59.19 ± 4.95%; % Viability 1 μM (PC12 cells [1]; [18]): 87.30 ± 18.26%; % Viability 3 μM (PC12 cells [1]; [19]): 78.46 ± 11.29%; % Viability 10 μM (PC12 cells [1]; [20]): 85.14 ± 11.29%; % Viability 30 μM (PC12 cells [1]; [21]): 78.95 ± 13.17%
